These results are taken from the Kinase Knowledgebase extract (Sharma et al. 2016).

The assay concerns the target CDK2 (UniProt P24941). The experiment in a line: Enzyme Assay.
`OC[C@H]1CCCN(c2cc(-n3cnc(Nc4ccccc4)n3)ccn2)C1`: the inhibition constant Ki – broadly, the equilibrium dissociation constant of an inhibitor or competing ligand from its target – is less than 500 nM.
As to `CCCC(=O)N1CCCN(c2cc(-n3cnc(Nc4ccccc4)n3)ccn2)CC1`, the Ki was more than 1000 nM.
With `CN1CCN(c2ccc(Nc3ncn(-c4ccccc4)n3)cn2)CC1`, the inhibitory constant (Ki) was more than 1000 nM.
Next, `CC(=O)N1[C@H](C)CN(c2cc(-n3cnc(Nc4ccc(N)cc4)n3)ccn2)C[C@@H]1C`: less than 500 nM; `O=C(CC1CCCC1)Nc1cc(-n2cnc(Nc3ccccc3)n2)ccn1`: more than 1000 nM.
On to `c1ccc(-n2cnc(Nc3ccnc(N4CCOCC4)c3)n2)cc1`, for which the Ki lay within 500 to 1000 nM.
Turning to `c1ccc(Nc2ncn(-c3ccnc(N4CCCCCC4)c3)n2)cc1`, the inhibition constant (Ki) was less than 500 nM.
Next, `CC(=O)N1[C@H](C)CN(c2cc(-n3cnc(Nc4ccc(N5CCOCC5)cc4)n3)ccn2)C[C@@H]1C`: less than 500 nM; `CCOc1cccc(Nc2ncn(-c3ccccc3)n2)c1`: more than 1000 nM.
Next, `CC(=O)N1[C@H](C)CN(c2cc(-n3cnc(Nc4ccc(NC(=O)C(F)(F)F)cc4)n3)ccn2)C[C@@H]1C`: less than 500 nM.
`CC1CCCN1c1cc(-n2cnc(Nc3ccccc3)n2)ccn1` (stereo not given) had a Ki of less than 500 nM.
As for `CCCOC(=O)Nc1ccc(Nc2ncn(-c3ccnc(N4C[C@@H](C)N(C(C)=O)[C@@H](C)C4)c3)n2)cc1`, the Ki is less than 500 nM.
In turn, `CC(C)CC(=O)N1CCCN(c2cc(-n3cnc(Nc4ccccc4)n3)ccn2)CC1` yielded an inhibition constant Ki of more than 1000 nM.
For the compound `CCN(CC)CCNc1cc(-n2cnc(Nc3ccccc3)n2)ccn1`, the Ki is more than 1000 nM.
`COCCN(C)c1cc(-n2cnc(Nc3ccccc3)n2)ccn1` had a Ki of less than 500 nM.
Regarding `CC(=O)N1[C@H](C)CN(c2cc(-n3cnc(Nc4ccccc4)n3)ccn2)C[C@@H]1C`, the Ki was less than 500 nM.
The compound `CC(=O)N1[C@H](C)CN(c2cc(-n3cnc(Nc4ccc(NC(=O)N(C)C)cc4)n3)ccn2)C[C@@H]1C` showed a Ki of more than 1000 nM.
The compound `c1ccc(-n2cnc(Nc3ccnc(NCCN4CCOCC4)c3)n2)cc1` gave a Ki of more than 1000 nM.
With `CCOc1ccc(Nc2ncn(-c3ccccc3)n2)cc1`, the Ki is more than 1000 nM.
Next, `c1ccc(-n2cnc(Nc3ccc(N4CCOCC4)cc3)n2)cc1`: more than 1000 nM.
`O=C(CCc1ccccc1)Nc1cc(-n2cnc(Nc3ccccc3)n2)ccn1` came in with a Ki of 500 to 1000 nM.
Compound `COc1cc(Nc2ncn(-c3ccc(C#N)cc3)n2)cc(OC)c1OC` had a Ki of 500 to 1000 nM.
For the compound `c1ccc(Nc2ncn(-c3ccnc(N4CCCCCCC4)c3)n2)cc1`, the inhibition constant Ki was less than 500 nM.
Next, `CCNC(=O)Nc1ccc(Nc2ncn(-c3ccnc(N4C[C@@H](C)N(C(C)=O)[C@@H](C)C4)c3)n2)cc1`: less than 500 nM; `c1ccc(-n2cnc(Nc3ccc(N4CCOCC4)nc3)n2)cc1`: more than 1000 nM.
In turn, `CC(=O)N1[C@H](C)CN(c2cc(-n3cnc(Nc4ccc(NC(=O)c5ccco5)cc4)n3)ccn2)C[C@@H]1C` came in with a Ki of 500 to 1000 nM.
Next, `CC(=O)N1[C@H](C)CN(c2cc(-n3cnc(Nc4ccc(NC(=O)c5cccs5)cc4)n3)ccn2)C[C@@H]1C`: less than 500 nM; `CCCN(CCO)c1cc(-n2cnc(Nc3ccccc3)n2)ccn1`: less than 500 nM; `CC(=O)N1CCCN(c2cc(-n3cnc(Nc4ccccc4)n3)ccn2)CC1`: 500 to 1000 nM.
Next, `COc1cc(Nc2ncn(-c3ccccc3)n2)cc(OC)c1OC`: more than 1000 nM.
Next, `CCOC(=O)c1ccc(Nc2ncn(-c3ccnc(N4CCCN(C(C)=O)CC4)c3)n2)cc1`: more than 1000 nM; `CN1C(C)(C)CC(Nc2cc(-n3cnc(Nc4ccccc4)n3)ccn2)CC1(C)C`: 500 to 1000 nM.
Consider `CC(=O)N1[C@H](C)CN(c2cc(-n3cnc(Nc4ccc(NC(=O)NC(C)C)cc4)n3)ccn2)C[C@@H]1C`, for which the Ki was less than 500 nM.
Take `C[C@@H]1CN(c2cc(-n3cnc(Nc4ccccc4)n3)ncn2)C[C@H](C)N1`: the Ki was more than 1000 nM.
Next, `O=C(Nc1cc(-n2cnc(Nc3ccccc3)n2)ccn1)C1CCCCC1`: 500 to 1000 nM; `CC(=O)N1CCCN(c2cc(-n3cnc(Nc4ccccc4)n3)ncn2)CC1`: more than 1000 nM; `CC(=O)N1[C@H](C)CN(c2cc(-n3cnc(Nc4ccc(NC(=O)NC(C)(C)C)cc4)n3)ccn2)C[C@@H]1C`: 500 to 1000 nM.
Consider `O=C(Cc1ccccc1)Nc1cc(-n2cnc(Nc3ccccc3)n2)ccn1`, for which the Ki is less than 500 nM.
Turning to `c1ccc(Nc2ncn(-c3ccnc(NC4CCCCC4)c3)n2)cc1`, the Ki is less than 500 nM.
`CC(=O)N1[C@H](C)CN(c2cc(-n3cnc(Nc4ccc(N5CCN(C(=O)OC(C)(C)C)CC5)cc4)n3)ccn2)C[C@@H]1C` came in with a Ki of less than 500 nM.
Next, `CCOC(=O)c1ccc(Nc2ncn(-c3ccnc(N4C[C@@H](C)N(C(C)=O)[C@@H](C)C4)c3)n2)cc1`: 500 to 1000 nM; `CCOC(=O)Nc1ccc(Nc2ncn(-c3ccnc(N4C[C@@H](C)N(C(C)=O)[C@@H](C)C4)c3)n2)cc1`: less than 500 nM.
Compound `CN(C)CCCN(C)c1cc(-n2cnc(Nc3ccccc3)n2)ccn1` showed a Ki of more than 1000 nM.
With `CCCNC(=O)Nc1ccc(Nc2ncn(-c3ccnc(N4C[C@@H](C)N(C(C)=O)[C@@H](C)C4)c3)n2)cc1`, the Ki is less than 500 nM.
`CC(C)(C)CC(=O)Nc1cc(-n2cnc(Nc3ccccc3)n2)ccn1`: the Ki is more than 1000 nM.
`O=c1[nH]c2ccccc2n1C1CCN(c2cc(-n3cnc(Nc4ccccc4)n3)ccn2)CC1` registered a Ki of more than 1000 nM.
Regarding `CC(=O)N1[C@H](C)CN(c2cc(-n3cnc(Nc4ccc(NC(=O)OC(C)C)cc4)n3)ccn2)C[C@@H]1C`, the Ki lay within 500 to 1000 nM.
Regarding `CN(Cc1cccnc1)c1cc(-n2cnc(Nc3ccccc3)n2)ccn1`, the Ki is less than 500 nM.
The compound `O=C(C1CCCO1)N1CCN(c2cc(-n3cnc(Nc4ccccc4)n3)ccn2)CC1` (stereo not given) gave a Ki of more than 1000 nM.
Next, `CC(=O)N1[C@H](C)CN(c2cc(-n3cnc(Nc4ccc(N5CCN(S(=O)(=O)c6ccc(C)cc6)CC5)cc4)n3)ccn2)C[C@@H]1C`: 500 to 1000 nM; `CN(CCO)c1cc(-n2cnc(Nc3ccccc3)n2)ccn1`: less than 500 nM; `COC(=O)Nc1ccc(Nc2ncn(-c3ccnc(N4C[C@@H](C)N(C(C)=O)[C@@H](C)C4)c3)n2)cc1`: less than 500 nM.
Consider `CC(C)Oc1cccc(Nc2ncn(-c3ccccc3)n2)c1`, for which the Ki is more than 1000 nM.
Consider `c1ccc(-n2cnc(Nc3ccc4c(c3)OCCO4)n2)cc1`, for which the Ki is more than 1000 nM.
`c1ccc(Nc2ncn(-c3ccnc(N4CCCCC4)c3)n2)cc1` registered a Ki of less than 500 nM.
`CC(=O)N1[C@H](C)CN(c2cc(-n3cnc(Nc4ccc(NC(=O)OCC(C)(C)C)cc4)n3)ccn2)C[C@@H]1C` yielded a Ki of 500 to 1000 nM.
Consider `CC(=O)N1[C@H](C)CN(c2cc(-n3cnc(Nc4ccccc4)n3)ncn2)C[C@@H]1C`, for which the Ki is more than 1000 nM.
For `CC(C)CCN(C)c1cc(-n2cnc(Nc3ccccc3)n2)ccn1`, the Ki was less than 500 nM.
For `COCC(=O)N1CCCN(c2cc(-n3cnc(Nc4ccccc4)n3)ccn2)CC1`, the Ki is more than 1000 nM.
Next, `CCC(=O)N1CCCN(c2cc(-n3cnc(Nc4ccccc4)n3)ccn2)CC1`: more than 1000 nM; `CN(Cc1ccccc1)c1cc(-n2cnc(Nc3ccccc3)n2)ccn1`: less than 500 nM.
In turn, `CC(C)C(=O)N1CCCN(c2cc(-n3cnc(Nc4ccccc4)n3)ccn2)CC1` yielded a Ki of more than 1000 nM.
Next, `CCN(CCO)c1cc(-n2cnc(Nc3ccccc3)n2)ccn1`: less than 500 nM; `N#CCC(=O)N1CCCN(c2cc(-n3cnc(Nc4ccccc4)n3)ccn2)CC1`: less than 500 nM; `CC(=O)N1[C@H](C)CN(c2cc(-n3cnc(Nc4ccc(NC(=O)OCC(C)C)cc4)n3)ccn2)C[C@@H]1C`: 500 to 1000 nM.
